# Publication PMC10254235, “Design, Synthesis, and Anti-Cervical Cancer and Reversal of Tumor Multidrug Resistance Activity of Novel Nitrogen-Containing Heterocyclic Chalcone Derivatives” (Molecules, 2023)
# Read-outs that look alike come from different tables or passages of the source.
# What was measured:
# HeLa cells [1] = assay: MTT antiproliferative assay, HeLa cells; type: cell-based, human; details: Homo sapiens, 48 h
# Method: (§1) HeLa and SiHa cell lines were obtained from the Procell Life Science Technology Co., Ltd. (Wuhan, China); H8 cell line was obtained from the Shanghai HonSun Biological Technology Co., Ltd. (Shanghai, China); HUVEC cell line was obtained from the Saibaikang (Shanghai) Biotechnology Co., Ltd. (Shanghai, China); HeLa/DDP cell line was obtained from the Guangzhou Jenniobio Biotechnology Co., Ltd. (Guangzhou, China). HeLa, SiHa, H8, and HeLa/DDP cells were cultured in DMEM medium (HyClone). The VEGF of 50 ng/mL was used as the promoter of the VEGFR-2 receptor on HUVEC cell membrane surfaces, and their inhibitory effects on VEGFR-2 were determined. All the mediums were supplemented with 10% FBS (HyClone, GE Healthcare, Australia). Cells were maintained at subconfluency at 37 °C in humidified air containing 5% CO2. The cells were monitored daily and maintained at 80% cell density. All compounds tested were dissolved in DMSO and then diluted by the culture medium before the treatment of cultured cells. Identification reports are available for all types of cell lines involved in this study.
# (§2) The cytotoxicity of the target compounds were measured in vitro using the MTT assay. Cells grown in the logarithmic phase were counted and seeded in 96-well cell culture plates (5 × 10^3 cells per well) for 24 h to allow attachment of cells to the wall of the plate. […] Next, 20 μL of 5 mg.mL^−1 MTT solution was added to each well and cultured for 4 h. The old solution was discarded, replaced with 150 μL DMSO solution per well, and shaken for 10 min. The OD value was measured under 490 nm, and the inhibition rate was calculated. The nonlinear regression fitting of the cell growth rate was carried out using SPSS 23.0 software, and the IC50 of the compound was calculated. […] There were 6 compound holes in each group, and the experimental results were presented as the average of 3 experiments. A complete medium containing only cells was used as the blank control, whereas a complete medium without cells was the negative control group. Cisplatin and sorafenib were utilized as the positive control group, and the target compound was the experimental intervention group.
# HeLa cells [2] = assay: Transwell invasion assay (Matrigel); type: cell-based, human; details: 24 h, control 172
# Method: The transwell ([…], Corning Incorporated, New York, NY, USA) was precoated using 50 μL Matrigel for 5 h at 37 °C to achieve solidification. […] After 24 h of incubation at 37 °C, the invasion cells were fixed using methanol and stained using 0.1% crystal violet for 30 min, respectively. Then, the chambers were washed using PBS and left to dry. Images were photographed using an inverted fluorescence microscope (Leica, Microsystems CMS GmbH, GER) and counted using Image J software (V1.8.0.112) for three independent fields randomly.
# p-VEGFR-2 (Y1175) = assay: Western blot, p-VEGFR-2 in HeLa cells; type: cell-based, human; details: HeLa, 2, 4 and 6 μM, 24 h
# Method: (§3) Next, the protein concentrations were determined using a BCA Protein Assay Kit (Solarbio, China). An equal amount of the proteins (12 μg) were separated using 8–12% sodium dodecyl sulfate–polyacrylamide gel electrophoresis (SDS-PAGE) and transferred to nitrocellulose membranes (Amersham Biosciences, Little Chalfont, Buckinghamshire, UK). Then, the membranes were blocked with 5% nonfat dried milk in TBS containing 1% Tween-20 for 2 h at room temperature and were incubated overnight with specific primary antibodies (CST, Boston, MA, USA) at 4 °C. After three washes in TBST, the membranes were incubated with the appropriate HRP-conjugated secondary antibodies at room temperature for 2 h. The blots were developed using enhanced chemiluminescence (Biosharp, Shanghai, China) and were detected using a PE 0723 imager (ProteinSimple, Silicon Valley, CA, USA). Each experiment was performed at least in triplicate and analyzed using Image J software (V1.8.0.112). […]
# HeLa/DDP cells = assay: MTT assay, cisplatin-resistant HeLa/DDP cells; type: cell-based, human
# Method: The cytotoxicity of the target compounds were measured in vitro using the MTT assay. Cells grown in the logarithmic phase were counted and seeded in 96-well cell culture plates (5 × 10^3 cells per well) for 24 h to allow attachment of cells to the wall of the plate. […] Next, 20 μL of 5 mg.mL^−1 MTT solution was added to each well and cultured for 4 h. The old solution was discarded, replaced with 150 μL DMSO solution per well, and shaken for 10 min. The OD value was measured under 490 nm, and the inhibition rate was calculated. The nonlinear regression fitting of the cell growth rate was carried out using SPSS 23.0 software, and the IC50 of the compound was calculated. […] A complete medium containing only cells was used as the blank control, whereas a complete medium without cells was the negative control group.
# p-AKT (Ser473) = assay: Western blot, p-AKT in HeLa cells; type: cell-based, human; details: HeLa, 2, 4 and 6 μM, 24 h
# Method: as §3
# P-gp = assay: Western blot, P-gp expression in HeLa/DDP cells; type: cell-based, human; details: 0.25, 0.5 and 1 μM, p > 0.05
# Method: as §3
# To reduce the adverse reactions caused by the fixation of drug resistance reversal agents, the concentration that reduces the proliferation rate of tumor cells by less than 10% was selected. Therefore, the inhibitory activity of compound 6f on HeLa/DDP cells was determined in the concentration ranges of 0.25, 0.5, and 1 μM combined with cisplatin. […]
# Bcl-2 = assay: Western blot, Bcl-2 in HeLa cells; type: cell-based, human; details: HeLa, 2, 4 and 6 μM, 24 h, versus control, p < 0.05
# Method: as §3
# After incubation, cells were harvested and incubated using […] of Annexin-V/FITC (BD, America) in binding buffer (10 mM HEPES, 140 mM NaCl, and 2.5 mM CaCl2 at pH 7.4) at room temperature for 15 min. […] Almost 10,000 events were collected for each sample and analyzed using flow cytometry (BD, LSRFortessa, New York, NY, USA). […]
# SiHa cells = assay: MTT antiproliferative assay, SiHa cells; type: cell-based, human; details: Homo sapiens, 48 h, mean ± SD
# Method: as §1, §2
# VEGFR-2 = molecular target: T1, VEGFR-2 (Homo sapiens, UniProt P35968); assay: VEGFR-2 inhibition test (human p-VEGFR-2 ELISA in HeLa cells); type: cell-based; details: ± SD, read-out: 48h IC50 VEGFR-2 inhibitory effect
# T1 construct: endogenous in cells; host or cells: HeLa cells
# Method: Specimens, standards, and HRP-labeled detection antibodies were added sequentially to the pre-covered microtiter wells containing phosphorylated vascular endothelial growth factor receptor 2 (p-VEGFR2) antibodies, warmed, and washed thoroughly. The substrate TMB was added for color development. This substrate is converted to blue using peroxidase catalysis to a final yellow color due to the action of acid. […] Curve fitting was performed using SPSS 23.0 software to calculate IC50.
# p-PI3K (Tyr458) = assay: Western blot, p-PI3K in HeLa cells; type: cell-based, human; details: HeLa, 2, 4 and 6 μM, 24 h
# Method: as §3
# T1 sequence (P35968 20-1356): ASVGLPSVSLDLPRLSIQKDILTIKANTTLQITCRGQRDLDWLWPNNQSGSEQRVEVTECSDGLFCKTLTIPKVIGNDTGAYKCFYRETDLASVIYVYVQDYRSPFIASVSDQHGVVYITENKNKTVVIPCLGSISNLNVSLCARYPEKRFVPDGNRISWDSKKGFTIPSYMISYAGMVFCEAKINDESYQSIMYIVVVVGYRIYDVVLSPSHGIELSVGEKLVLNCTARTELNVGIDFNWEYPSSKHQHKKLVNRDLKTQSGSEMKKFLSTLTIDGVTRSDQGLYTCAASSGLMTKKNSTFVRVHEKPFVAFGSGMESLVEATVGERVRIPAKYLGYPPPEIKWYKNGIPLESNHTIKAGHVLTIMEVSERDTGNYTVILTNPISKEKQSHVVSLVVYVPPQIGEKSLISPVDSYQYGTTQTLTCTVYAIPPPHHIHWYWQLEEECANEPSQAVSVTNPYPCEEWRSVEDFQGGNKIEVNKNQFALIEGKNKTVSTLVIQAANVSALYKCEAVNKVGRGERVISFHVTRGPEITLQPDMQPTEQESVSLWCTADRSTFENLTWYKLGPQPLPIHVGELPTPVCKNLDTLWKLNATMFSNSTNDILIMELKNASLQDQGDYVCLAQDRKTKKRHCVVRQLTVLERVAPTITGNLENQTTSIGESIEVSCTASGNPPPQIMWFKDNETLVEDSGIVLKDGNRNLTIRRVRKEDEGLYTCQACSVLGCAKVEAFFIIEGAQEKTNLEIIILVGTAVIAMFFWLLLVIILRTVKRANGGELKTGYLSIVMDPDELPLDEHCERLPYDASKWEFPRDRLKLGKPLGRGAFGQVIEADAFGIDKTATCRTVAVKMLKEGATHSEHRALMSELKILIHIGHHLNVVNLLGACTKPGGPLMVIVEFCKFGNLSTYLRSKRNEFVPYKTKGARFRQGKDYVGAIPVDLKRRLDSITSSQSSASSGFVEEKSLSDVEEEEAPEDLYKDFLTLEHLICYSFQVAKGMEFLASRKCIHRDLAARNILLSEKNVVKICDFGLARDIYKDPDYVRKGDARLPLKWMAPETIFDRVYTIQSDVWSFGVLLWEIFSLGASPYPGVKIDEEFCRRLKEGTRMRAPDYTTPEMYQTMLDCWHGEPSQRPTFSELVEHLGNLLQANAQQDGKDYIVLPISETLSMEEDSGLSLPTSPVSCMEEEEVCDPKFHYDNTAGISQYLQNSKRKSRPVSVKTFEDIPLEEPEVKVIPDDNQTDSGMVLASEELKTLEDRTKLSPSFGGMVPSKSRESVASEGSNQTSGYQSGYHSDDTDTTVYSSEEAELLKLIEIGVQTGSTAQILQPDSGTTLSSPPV
compound,measurement,setting,value
"COc1cc(O)c(C(=O)/C=C/c2ccc(CN3CCC(C)CC3)cc2)cc1CN1CCC(O)CC1 [6f, (E)-1-(2-hydroxy-5-((4-hydroxypiperidin-1-yl)methyl)-4-methoxyphenyl)-3-(4-((4-methylpiperidin-1-yl)methyl)phenyl)prop-2-en-1-one]",IC50,"HeLa cells [1]; MTT, mean ± SD, read-out: 48h IC50 HeLa",6.52 ± 0.42 µM
same,IC50,"HeLa cells [1]; single agent, read-out: 48h IC50 HeLa (Table 4)",6.52 ± 0.42 µM
same,number of invading cells,HeLa cells [2]; 2 μM,91
same,number of invading cells,HeLa cells [2]; 4 μM,50
same,number of invading cells,HeLa cells [2]; 6 μM,35
same,p-VEGFR-2 (Y1175) in HeLa cells (Western blot),p-VEGFR-2 (Y1175),effective downregulation
same,inhibitory rate on HeLa/DDP cell line,"HeLa/DDP cells; 6f alone at 0.25, 0.5 and 1 μM",less than 10%
same,RI (resistance index),"HeLa/DDP cells; HeLa/DDP versus HeLa, single agent",1.19
same,IC50,"HeLa/DDP cells; Homo sapiens, cisplatin-resistant HeLa/DDP cells, single agent, 48 h, read-out: 48h IC50 HeLa/DDP",7.74 ± 0.36 µM
same,p-AKT (Ser473) in HeLa cells (Western blot),p-AKT (Ser473),effective downregulation
same,P-gp expression in HeLa/DDP cells (Western blot),P-gp,did not exhibit a significant variance in P-gp expression
same,expression of Bcl-2 (Western blot),Bcl-2,significantly downregulating the expression of Bcl-2
same,IC50,SiHa cells,7.88 ± 0.52 µM
same,IC50,VEGFR-2,0.75 ± 0.05 µM
same,p-PI3K (Tyr458) in HeLa cells (Western blot),p-PI3K (Tyr458),effective downregulation
